Reference: patent US20170196868A1, “METHODS AND COMPOSITIONS FOR TREATMENT OF HER-POSITIVE CANCERS” (UNIVERSITY OF SOUTH CAROLINA, priority 2014, published 2017)
Values joined by “and” are separate entries in the source; they are usually repeats but may differ in a detail not shown here. Identical values can stand only once.

Tests used:
Type in all cases: cell-based
[1] = test system: BT474 breast cancer cells; assay: Emergence of erlotinib resistance, continuous treatment for 35 days
Method: We conducted a similar experiment with BT474 breast cancer cells continuously treated with erlotinib, an inhibitor of EGFR, another member of the same HER family as HER2/Neu. 600,000 cells per T75 flask were plated in the continuous presence of […] erlotinib, […] Senexin B, or a combination of both (changing drug-containing media twice a week). […] The macroscopic and microscopic views of the corresponding samples after 35 days of treatment are shown in FIG. 11 and FIG. 12, respectively.

[2] = test system: ER-HER2+ breast cancer cell line JIMT-1; assay: MTT assay for relative cell number, drug combination analysis (CompuSyn CI)
Method: (§1) In these experiments, 2000 cells/well were plated in each well of 96 well plates. […] Treatment was repeated after 3 days, and the MTT assay for relative cell number was performed after the total of 7 days of treatment. The Combination Index (CI) values were calculated using CompuSyn® (www.combosyn.com), a web tool based on the principles described in Chou (2006).
(§2) The same analysis as above was conducted in ER-HER2+ breast cancer cell line HCC-1419 which, despite high levels of HER2, is intrinsically resistant to trastuzumab but sensitive to lapatinib; this pattern of resistance has been associated with activated phosphoinositide 3-kinase/AKT signaling (O'Brien et al., 2010). We also analyzed ER-HER2+ breast cancer cell line JIMT-1, which is intrinsically resistant to both trastuzumab and lapatinib.

[3] = test system: SKBR3 (ER-HER2+) breast cancer cell line; assay: Emergence of lapatinib resistance, continuous exposure for 16 weeks, crystal violet staining; settings: for inhibition of cell growth after 1 week of treatment: single agent, 2.5 μM Senexin B or 250 nM lapatinib
Text: (§3) A major problem for chemotherapy in general and for molecularly targeted drugs in particular is the development of drug resistance. The ability to prevent the development of drug resistance could allow sustained response to targeted drugs and transform the outcome of cancer therapy. Since CDK8 is a key mediator of transcriptional reprogramming (Galbraith et al., 2010, 2013), we hypothesized that CDK8 inhibition may prevent the induction of transcription that may be associated with epigenetic acquisition of drug resistance. To test this hypothesis, we plated BT474 (ER+HER2+) and SKBR3 (ER-HER2+) breast cancer cell lines at 250,000 cells per T25 flask, and the cells were continuously exposed to 2.5 μM Senexin B, 250 nM lapatinib, alone and in combination, for a period of 16 weeks, changing drug-containing media twice a week. At selected time points, cells in flasks were fixed with methanol:acetic acid and stained with crystal violet. The results for BT474 are shown in FIG. 9 and for SKBR3 in FIG. 10. […] However, by week 4 (in the case of BT474) or week 8 (in the case of SKBR3), the outgrowth of cells treated with lapatinib alone became noticeable compared to cells treated with lapatinib+Senexin B combination.

[4] = test system: BT474 (ER+HER2+) breast cancer cell line; assay: as above; settings: for inhibition of cell growth after 1 week of treatment: single agent, 2.5 μM Senexin B or 250 nM lapatinib
Text: as §3

[5] = test system: HER2+ colon cancer cell line HCT-116; assay: MTT assay for relative cell number, drug combination analysis (CompuSyn CI); settings: for response of cells to drug alone: single agent
Method: (§4) FIG. 1 presents an analysis of the nature of the interaction between CDK8/19 inhibitor Senexin B (a.k.a. SNX2-1-165) developed and owned by Senex Biotechnology, Inc.) and a HER2-specific monoclonal antibody (a biosimilar of trastuzumab from Biocad, Strelna, Russia) in BT474, a ER+HER2+ breast cancer cell line. In these experiments, 2000 cells/well were plated in each well of 96 well plates. […] Treatment was repeated after 3 days, and the MTT assay for relative cell number was performed after the total of 7 days of treatment. The Combination Index (CI) values were calculated using CompuSyn® (www.combosyn.com), a web tool based on the principles described in Chou (2006). […] Similar analysis was conducted for the interaction between Senexin B and lapatinib (LAP), a small-molecule inhibitor of both HER2 and EGFR, in the same cells; using a SNXB:LAP molar ratio of 10:1.
(§5) To determine if CDK8/19 inhibition affects the response of HER2+ colon cancer cells to lapatinib, we conducted the same type of analysis as above on two HER2+ colon cancer cell lines, HCT-116 and HT-29 (both plated at 1500 cells per well).

[6] = test system: HER2+ colon cancer cell line HT-29; assay: as above; settings: for response of cells to drug alone: single agent
Method: as §4, §5

[7] = test system: lapatinib-selected SKBR3-LT cells; assay: Sensitivity of lapatinib-selected cells versus parental SKBR3, 7-day treatment; settings: 7 days
[8] = test system: BT474, a ER+HER2+ breast cancer cell line; assay: MTT assay for relative cell number, drug combination analysis (CompuSyn CI)
Method: as §4

[9] = test system: ER-HER2+ breast cancer cell line HCC-1419; assay: as above
Method: as §1, §2

[10] = test system: ER-HER2+ cell line SKBR3; assay: as above; settings: Senexin B + lapatinib; three experiments
Method: as §4
The same analysis was then conducted using an ER-HER2+ cell line SKBR3 (cells were plated at 1,500 cells per well).

[11] = 250 nM lapatinib alone, compared to lapatinib+Senexin B combination
[12] = Senexin B + trastuzumab biosimilar (TRAST)
[13] = combination of 250 nM lapatinib and 2.5 μM Senexin B
[14] = combination of Senexin B and lapatinib

C#Cc1cccc(Nc2ncnc3cc(OCCOC)c(OCCOC)cc23)c1 [erlotinib]
emergence of resistant colonies after 35 days of treatment ([1]; 10 mM erlotinib alone): erlotinib-resistant colonies emerged
initial effect on cell growth ([1]; 10 mM erlotinib alone): initially inhibited cell growth

CS(=O)(=O)CCNCc1ccc(-c2ccc3ncnc(Nc4ccc(OCc5cccc(F)c5)c(Cl)c4)c3c2)o1 [lapatinib]
response of cells to drug alone ([2]; single agent): resistant
cell growth after 16 weeks of continuous treatment ([3]; 250 nM lapatinib alone): actively proliferating
time by which outgrowth of treated cells became noticeable [3, 11]: ≤ 8 week
inhibition of cell growth after 1 week of treatment [3]: extremely effective
cell growth after 16 weeks of continuous treatment ([4]; 250 nM lapatinib alone): actively proliferating
time by which outgrowth of treated cells became noticeable [4, 11]: ≤ 4 week
inhibition of cell growth after 1 week of treatment [4]: extremely effective
response of cells to drug alone [5]: weak response
response of cells to drug alone [6]: weak response
sensitivity of SKBR3-LT relative to SKBR3 ([7]; single agent): less sensitive

CN1CCN(C(=O)c2ccc3cc(CCNc4ncnc5ccc(C#N)cc45)ccc3c2)CC1 [Senexin B]
IC75 CI (Combination Index) ([8]; Senexin B (SNXB) + trastuzumab biosimilar (HER), fixed ratio 100 nM SNXB:1 μg/ml HER, 7 days, first experiment): 0.019
IC50 CI (Combination Index) ([8]; Senexin B + lapatinib (LAP), SNXB:LAP molar ratio 10:1, separate experiments): 0.512 and 0.728
CI (Combination Index) ([9]; Senexin B + lapatinib): 0.64
CI (Combination Index) [9, 12]: 0.45
IC50 CI (Combination Index) ([2]; Senexin B + lapatinib): 0.39
IC50 CI (Combination Index) [2, 12]: 0.04
cell growth after 16 weeks of continuous treatment [3, 13]: did not grow
inhibition of cell growth after 1 week of treatment [3]: limited effect
cell growth after 16 weeks of continuous treatment [4, 13]: did not grow
inhibition of cell growth after 1 week of treatment [4]: limited effect
IC50 CI (Combination Index) [10]: 0.611 and 0.674 and 0.470
emergence of resistant colonies after 35 days of treatment ([1]; combination of 10 mM erlotinib and 1 mM Senexin B): prevented the emergence of resistance
CI (Combination Index) ([5]; Senexin B + lapatinib): 0.647
response of cells to combination [5, 14]: significant response
response of cells to drug alone [5]: weak response
CI (Combination Index) ([6]; Senexin B + lapatinib): 0.314
response of cells to combination [6, 14]: significant response
response of cells to drug alone [6]: weak response
sensitivity of SKBR3-LT relative to SKBR3 ([7]; Senexin B combination with lapatinib, fixed ratio): essentially unchanged
sensitivity of SKBR3-LT relative to SKBR3 ([7]; Senexin B combination with trastuzumab biosimilar, fixed ratio): essentially unchanged
sensitivity of SKBR3-LT relative to SKBR3 ([7]; single agent): essentially unchanged
